# Patent publication US10441787B2, “Neuromodulation device” (GALVANI BIOE[…], priority 2015, dated 2019)
# “Also recorded” adds a separate entry of the source.
# Tested on: guinea pig airway smooth muscle tone
# Experiment: In-vivo model of baseline airway smooth muscle tone
# Design: dose or concentration left out as unconfirmed
# Settings: anesthetized guinea pigs; atropine delivered selectively to the trachea via Krebs buffer perfusion; isometric tension of tracheal rings 6 and 7
# Source text: FIG. 10: Schematic illustration of the method for assessing vagally-mediated baseline airay smooth muscle tone in anesthetized guinea pigs. (As described in, Mazzone and Canning, Curr. Protoc. Pharmacol. 2002. May 1; Chapter 5: Unit 5.26.)
# Methods for studying vagally-mediated bronchospasm in anesthetized guinea pigs have been described in detail elsewhere (Mazzone and Canning, Curr Protoc Pharmacol. 2002 May 1; Chapter 5:Unit 5.26; Auton Neurosci. 2002 Aug. 30; 99(2):91-101) and shown in FIG. 10. Guinea pigs are anesthetized with urethane (1.5 g/kg ip). The trachea and vagus nerves are visualized by a midline incision in the neck. The trachea is cannulated and connected to a constant volume ventilator (6 mL/kg body weight). The animals are then paralyzed with succinylcholine (2.5 mg/kg sc). An artery and vein are cannulated to monitor cardiovascular parameters and for drug delivery. The vagus nerves are placed on bipolar electrodes. […] Bronchospasm is recorded as a percentage increase in pulmonary inflation pressure.
# Using the method illustrated in FIG. 10, the portion of the trachea where isometric tension was measured (rings 6 and 7 caudal to the larynx) was perfused with warmed (37° C.), oxygenated Krebs buffer, which was used for selective delivery of atropine ([…]) to the trachea. […]
structure (smiles),measurement,value
CN1[C@@H]2CC[C@H]1C[C@@H](OC(=O)C(CO)c1ccccc1)C2 (stereo partly shown) [atropine],baseline airway smooth muscle tone,decrease in baseline airway smooth muscle tone; also recorded: Inhibition of guinea pig airway smooth muscle tone
